According to patent publication US3957785A, “Bβ-Pyrimidino-aminomethyl-10α-ergoline and 10α-methoxyergoline derivatives” (priority 1971, dated 1976):
Where “and” joins values, the source holds several entries; their conditions need not be identical. Equal values may be shown once. Read-outs that look alike come from different tables or passages of the source.

How the values were obtained:
[1] = tested on: isolated guinea pig seminal vescicle; assay: inhibition of the spasmogen effect caused by adrenaline on isolated guinea pig seminal vescicle (adrenolytic activity in vitro); design: unit: μg/ml; settings: isolated guinea pig seminal vescicle in physiological solution
Method: The compounds of the present invention have a high and prolonged adrenolytic activity and a low toxicity and are therefore useful in therapy. This adrenolytic activity was tested on several of the present compounds in vitro in comparison with dihydroergotamine on isolated guinea pig seminal vescicle suspended in a physiological solution.
Table 1 reports the values of concentrations, in μg/ml., which are able to produce a 50% inhibition (IC50) of the spasmogen effect caused by adrenaline.

[2] = tested on: lethal effects caused by adrenaline; assay: adrenolytic activity in vivo on the rat: reduction of lethal effects caused by adrenaline; settings: read-out: ID50 (dose reducing by 50% the lethal effects caused by adrenaline)
Method: (§1) The adrenolytic activity of the compounds of the invention was also determined in vivo on the rat in comparison with dihydroergotamine and nicergoline. Table 2 reports the doses in mg/kg (ID50) able to reduce by 50% the lethal effects caused by adrenaline after oral (os) and intravenous (i.v.) administration of these compounds as compared with dihydroergotamine and with nicergoline, i.e., 1,6-dimethyl-8 -(5'-bromonicotinoyloxymethyl)-10 -methoxyergoline (Br. J. Pharmac, 34, 700, 1968).

[3] = acute toxicity LD50 in rats; settings: rat, in vivo
lethal adrenaline dose = assay: percentage of animals protected against lethal adrenaline dose, hours after administration; type: in vivo, rat
Method: as §1
Some of the compounds reported in Table 2 have a long lasting effect of up to 24 hours as shown by the data contained in Table 3.
Percentage of animals protected against lethal adrenaline dose

adrenalin = assay: submaximal inhibiting dosage protecting 80% of rats against adrenalin injected 8 hours after administration; type: in vivo; settings: Rattus norvegicus, po, read-out: ID (submaximal inhibiting dosage which protects 80% of the tested animals)
Method: This greater stability was confirmed by the determination of the submaximal inhibiting dosage which protects 80% of the tested animals (rats) against a single dose of 200 mg/Kg of body weight of adrenalin injected 8 hours after administration of the tested compounds according to the invention.

hypertensive rat = assay: hypotensive activity on the hypertensive rat; type: in vivo; settings: po, read-out: Hypotensive Activity, Active Dose (dose causing a pressure drop of about 30-40 mmHg)
Method: The hypotensive activity was tested on the hypertensive rat; the reported data being the dose, expressed in mg/kg per os, which causes a pressure drop of about 30-40 mmHg.

[4] = analgesic activity, writhing test; type: in vivo; settings: for Analgesic Activity, Writhing, relative to D-propoxyphene: D-propoxyphene assigned the value of 1; for Analgesic Activity, Writhing, relative to morphine: morphine assigned the value of 1
Method: (§2) The analgesic activity was evaluated by means of the hot plate test and the writhing test, the data being given in comparison with morphine and D-propoxyphene.
(§3) In the hot plate and writhing tests, the comparison compounds morphine and D-propoxyphene have been arbitrarily assigned the value of 1. Thus, in the hot plate test, the compound 1,6-dimethyl-8β-(2-pyrimidino-aminomethyl)-10α-ergoline has the same activity as both morphine and D-propoxyphene, while in the writhing test that compound has 1/2 the activity of morphine and 5 times the activity of D-propoxyphene.

[5] = analgesic activity, hot plate test; type: in vivo
Method: as §2, §3

[6] = Arcamone et al. Bioch. Pharmac. 21, 2205, 1972; cited from earlier work
[7] = 0.5 mg/Kg per os, 1 hour after administration
[8] = 0.5 mg/Kg per os, 2 hours after administration
[9] = 0.5 mg/Kg per os, 4 hours after administration
[10] = 0.5 mg/Kg per os, 8 hours after administration
[11] = 0.1 mg/Kg per os, 1 hour after administration
[12] = 0.1 mg/Kg per os, 2 hours after administration
[13] = 0.5 mg/Kg per os, 0.5 hours after administration

Row | SMILES | TC50 (concentration producing 50% inhibition (IC50) of the spasmogen effect caused by adrenaline) [1] [μc/ml] | ED50 ([2]; iv) [mg/kg] | ED50 ([2]; po, os) [mg/kg] | LD50 ([3]; iv) [mg/kg] | LD50 ([3]; po, os) [mg/kg] | ED80 (adrenalin; 8 h) [mg/kg] | other results
1 | COC12CC(CNc3ncccn3)CN(C)C1Cc1cn(C)c3cccc2c13 (stereo not drawn) [1,6-dimethyl-8β -(2-pyrimidino-aminomethyl)-10α -methoxyergoline] | 0.005 | 0.2 | 1 | 25 | 250 | – | –
2 | COC12CC(CNc3ncc(Br)cn3)CN(C)C1Cc1cn(C)c3cccc2c13 (stereo not drawn) [1,6-dimethyl-8β -(5-bromo-2-pyrimidino-aminomethyl)-10α -methoxyergoline] | 0.005 | 0.08 | 0.32 | 50 | 230 | – | –
3 | COC12CC(CNc3ncc(C#N)cn3)CN(C)C1Cc1cn(C)c3cccc2c13 (stereo not drawn) [1,6-dimethyl-8β -(5-cyano-2-pyrimidino-aminomethyl)-10α -methoxyergoline] | 0.0001 | 0.015 | 0.2 | 38 | 160 | 0.5 | % survivors (lethal adrenaline dose; 0.2 mg/Kg per os, 2 hours after administration): 100%; % survivors (lethal adrenaline dose; 0.2 mg/Kg per os, 4 hours after administration): 90%; % survivors (lethal adrenaline dose; [7]): 80%; % survivors (lethal adrenaline dose; [8]): 90%; % survivors (lethal adrenaline dose; [9]): 80%; % survivors (lethal adrenaline dose; [10]): 80%; ED (30-40 mmHg pressure drop) (hypertensive rat; Rattus norvegicus): 1 to 2.5 mg/kg; Analgesic Activity, Writhing, relative to D-propoxyphene [4]: 1; Analgesic Activity, Writhing, relative to morphine [4]: 0.2
4 | Cc1cc(C)nc(NCC2CC3c4cccc5c4c(cn5C)CC3N(C)C2)n1 (stereo not drawn) [1,6-dimethyl-8β(4,6-dimethyl-2-pyrimidino-aminomethyl)-10α -ergoline] | – | – | 1.25 | – | – | – | % survivors (lethal adrenaline dose; 2.5 mg/Kg per os, 1 hour after administration): 80%; % survivors (lethal adrenaline dose; 2.5 mg/Kg per os, 2 hours after administration): 60%; % survivors (lethal adrenaline dose; 2.5 mg/Kg per os, 4 hours after administration): 30%; % survivors (lethal adrenaline dose; 5 mg/Kg per os, 1 hour after administration): 100%; % survivors (lethal adrenaline dose; 5 mg/Kg per os, 2 hours after administration): 80%; % survivors (lethal adrenaline dose; 5 mg/Kg per os, 4 hours after administration): 50%; % survivors (lethal adrenaline dose; 5 mg/Kg per os, 8 hours after administration): 20%; % survivors (lethal adrenaline dose; 10 mg/Kg per os, 1 hour after administration): 100%; % survivors (lethal adrenaline dose; 10 mg/Kg per os, 2 hours after administration): 100%; % survivors (lethal adrenaline dose; 10 mg/Kg per os, 4 hours after administration): 60%
5 | CN1CC(CNc2ncccn2)CC2c3cccc4c3c(cn4C)CC21 (stereo not drawn) [1,6-dimethyl-8β-(2-pyrimidino-aminomethyl)-10α -ergoline] | – | – | – | – | – | – | ED (30-40 mmHg pressure drop) (hypertensive rat; hypertensive rat, per os): 5 to 10 mg/kg; Analgesic Activity, Writhing, relative to D-propoxyphene [4]: 5; Analgesic Activity, Writhing, relative to morphine [4]: 0.5 and 1/2
6 | CN1CC(CNc2ncc(N)cn2)CC2c3cccc4c3c(cn4C)CC21 (stereo not drawn) [1,6-dimethyl-8β-(5-amino-2-pyrimidino-aminomethyl)-10α-ergoline] | – | 0.18 | 0.5 | 18 | 140 | 1 | –
7 | CN1CC(CNc2ncc(Cl)cn2)CC2c3cccc4c3c(cn4C)CC21 (stereo not drawn) [1,6-dimethyl-8β-(5-chloro-2-pyrimidino-aminomethyl)-10α -ergoline] | – | – | 0.14 | – | – | 1 | –
8 | CN1CC(CNc2ncc(C#N)cn2)CC2c3cccc4c3c(cn4C)CC21 (stereo not drawn) [1,6-dimethyl-8β-(5-cyano-2-pyrimidino-aminomethyl)-10α -ergoline] | 0.005 | 0.05 | 0.05 | 25 | 35 | – | ED (30-40 mmHg pressure drop) (hypertensive rat; Rattus norvegicus): 2.5 to 5 mg/kg
9 | Cc1cnc(NCC2CC3c4cccc5c4c(cn5C)CC3N(C)C2)nc1 (stereo not drawn) [1,6-dimethyl-8β-(5-methyl-2-pyrimidino-aminomethyl)-10 α-ergoline] | – | 0.15 | 0.1 | 35 | 140 | – | ED (30-40 mmHg pressure drop) (hypertensive rat; hypertensive rat, per os): 5 to 10 mg/kg; Analgesic Activity, Hot plate, relative to D-propoxyphene ([5]; D-propoxyphene assigned the value of 1): 5; Analgesic Activity, Hot plate, relative to morphine ([5]; morphine assigned the value of 1): 1; Analgesic Activity, Writhing, relative to D-propoxyphene [4]: 5; Analgesic Activity, Writhing, relative to morphine [4]: 0.5
10 | COC12CC(CNc3ncc(C)cn3)CN(C)C1Cc1cn(C)c3cccc2c13 (stereo not drawn) [1,6-dimethyl-8β-(5-methyl-2-pyrimidino-aminomethyl)-10α -methoxyergoline] | 0.001 | 0.1 | 0.1 | 18 | – | – | –
11 | CN1CC(CNc2ncc([N+](=O)[O-])cn2)CC2c3cccc4c3c(cn4C)CC21 (stereo not drawn) [1,6-dimethyl-8β-(5-nitro-2-pyrimidino-aminomethyl)-10α -ergoline] | 0.007 | 0.09 | 0.04 | – | – | 0.5 | % survivors (lethal adrenaline dose; 0.1 mg/Kg per os, 0.5 hours after administration): 50%; % survivors (lethal adrenaline dose; [11]): 90%; % survivors (lethal adrenaline dose; [12]): 60%; % survivors (lethal adrenaline dose; 0.1 mg/Kg per os, 4 hours after administration): 70%; % survivors (lethal adrenaline dose; 0.1 mg/Kg per os, 8 hours after administration): 60%; % survivors (lethal adrenaline dose; 0.1 mg/Kg per os, 16 hours after administration): 10%; % survivors (lethal adrenaline dose; [13]): 100%; % survivors (lethal adrenaline dose; [7]): 100%; % survivors (lethal adrenaline dose; [8]): 100%; % survivors (lethal adrenaline dose; [9]): 90%; % survivors (lethal adrenaline dose; [10]): 80%; % survivors (lethal adrenaline dose; 0.5 mg/Kg per os, 16 hours after administration): 30%; % survivors (lethal adrenaline dose; 0.5 mg/Kg per os, 24 hours after administration): 20%
12 | COC12CC(CNc3ncc([N+](=O)[O-])cn3)CN(C)C1Cc1cn(C)c3cccc2c13 (stereo not drawn) [1,6-dimethyl-8β-(5-nitro-2-pyrimidino-aminomethyl)-10α -methoxyergoline] | 0.001 | 0.2 | < 0.1 | 28 | 200 | – | % survivors (lethal adrenaline dose; [11]): 70%; % survivors (lethal adrenaline dose; [12]): 80%; % survivors (lethal adrenaline dose; [13]): 100%; % survivors (lethal adrenaline dose; [8]): 100%; % survivors (lethal adrenaline dose; [9]): 90%; % survivors (lethal adrenaline dose; [10]): 40%; ED (30-40 mmHg pressure drop) (hypertensive rat; Rattus norvegicus): 1 to 2.5 mg/kg
13 | CN1C[C@H](C(=O)N[C@]2(C)O[C@@]3(O)[C@@H]4CCCN4C(=O)[C@H](Cc4ccccc4)N3C2=O)C[C@@H]2c3cccc4[nH]cc(c34)C[C@H]21 [dihydroergotamine, reference compound] | 0.015 | 0.08 | 15 | – | – | > 20 | –
14 | CO[C@]12C[C@@H](COC(=O)c3cncc(Br)c3)CN(C)[C@@H]1Cc1cn(C)c3cccc2c13 [nicergoline, 1,6-dimethyl-8β-(5'-bromonicotinoyloxymethyl) 10α-methoxyergoline, reference compound] | – | 0.024 | 7 | – | – | – | ED80 (adrenalin; peros in rats after 8 hours, single dose of 200 mg/Kg adrenalin): > 20 mg/kg; metabolism in the presence of blood in vitro [6]: rapidly metabolized
